Test results as given in ChEMBL document CHEMBL5550171, “Poly (ADP-ribose) polymerase (PARP) inhibitors as anticancer agents: An outlook on clinical progress, synthetic strategies, biological activity, and structure-activity relationship” (Eur J Med Chem, 2024).
Each block holds one compound with its values, some of them ahead of it.

Assays:
[1] = tested on: MDA-MB-157; assay: Anticancer activity against human MDA-MB-157 cells assessed as cell growth inhibition; format: functional, cell-based
[2] = tested on: HCC1395; assay: Anticancer activity against human HCC1395 cells assessed as cell growth inhibition; format: functional, cell-based
[3] = tested on: MCF7; assay: Antiproliferative activity against human MCF7 cells assessed as reduction in cell growth measured after 72 hrs by MTT assay; format: functional, cell-based; details: MCF7, 72 h
[4] = target: T1, Poly [ADP-ribose] polymerase 1 (Homo sapiens, UniProt P09874); assay: Inhibition of PARP1 (unknown origin)
[5] = tested on: MDA-MB-231; assay: Cytotoxicity against human MDA-MB-231 cells assessed as reduction in cell viability measured for 48 hrs by MTT assay; format: functional, cell-based; details: MDA-MB-231, 48 h
[6] = tested on: MCF7; assay: Cytotoxicity against human MCF7 cells assessed as reduction in cell viability measured for 48 hrs by MTT assay; format: functional, cell-based; details: MCF7, 48 h
[7] = target: Protein mono-ADP-ribosyltransferase PARP3 (Homo sapiens, UniProt Q9Y6F1); assay: Inhibition of PARP3 (unknown origin)
[8] = Cytotoxicity against African green monkey Vero cells; format: toxicity, cell-based, Chlorocebus sabaeus
[9] = tested on: Caco-2; assay: Cytotoxicity against human Caco-2 cells assessed as inhibition of cell growth incubated for 72 hrs by CCK-8 assay; format: functional, cell-based; details: Caco-2, 72 h
[10] = tested on: MCF7; assay: Anticancer activity against human MCF7 cells assessed as reduction in cell viability; format: functional, cell-based
[11] = target: T1, Poly [ADP-ribose] polymerase 1; assay: Inhibition of human recombinant PARP-1 by ELISA assay
[12] = tested on: MDA-MB-436; assay: Antiproliferative activity against human MDA-MB-436 cells assessed as reduction in cell viability incubated for 72 hrs by MTT assay; format: functional, cell-based; details: MDA-MB-436, 72 h
[13] = target: T1, Poly [ADP-ribose] polymerase 1; assay: Inhibition of human PARP1
[14] = tested on: HCT-116; assay: Cytotoxicity against human HCT-116 cells assessed as reduction in cell growth incubated for 96 hrs by MTT assay; format: functional, cell-based; details: HCT-116, 96 h
[15] = target: T1, Poly [ADP-ribose] polymerase 1; assay: Inhibition of human recombinant PARP1 expressed in Escherichia coli BL21(DE3)
[16] = tested on: MDA-MB-436; assay: Antiproliferative activity against human MDA-MB-436 cells assessed as reduction in cell viability; format: functional, cell-based
[17] = tested on: HCC1937; assay: Antiproliferative activity against human HCC1937 cells assessed as reduction in cell viability incubated for 72 hrs by CCK-8 assay; format: functional, cell-based; details: HCC1937, 72 h
[18] = tested on: A549; assay: Antiproliferative activity against human A549 cells assessed as reduction in cell growth incubated for 72 hrs by CCK-8 assay; format: functional, cell-based; details: A549, 72 h
[19] = tested on: MDA-MB-436; assay: Antiproliferative activity against human MDA-MB-436 cells assessed as reduction in cell viability incubated for 72 hrs by CCK-8 assay; format: functional, cell-based; details: MDA-MB-436, 72 h
[20] = tested on: CAPAN-1; assay: Antiproliferative activity against human CAPAN-1 cells assessed as reduction in cell viability incubated for 72 hrs by CCK-8 assay; format: functional, cell-based; details: CAPAN-1, 72 h
[21] = tested on: MCF7; assay: Antiproliferative activity against human MCF7 cells assessed as reduction in cell growth incubated for 72 hrs by CCK-8 assay; format: functional, cell-based; details: MCF7, 72 h
[22] = tested on: MDA-MB-231; assay: Antiproliferative activity against human MDA-MB-231 cells assessed as reduction in cell growth incubated for 72 hrs by CCK-8 assay; format: functional, cell-based; details: MDA-MB-231, 72 h
[23] = tested on: K562; assay: Antiproliferative activity against human K562 cells assessed as reduction in cell growth incubated for 72 hrs by CCK-8 assay; format: functional, cell-based; details: K562, 72 h
[24] = tested on: MDA-MB-231; assay: Cytotoxicity against human MDA-MB-231 cells assessed as reduction in cell growth incubated for 72 hrs by alamar blue reagent based analysis; format: functional; details: MDA-MB-231, 72 h
[25] = tested on: MCF7; assay: Cytotoxicity against human MCF7 cells assessed as reduction in cell growth incubated for 72 hrs by alamar blue reagent based analysis; format: functional; details: MCF7, 72 h
[26] = tested on: MDA-MB-436; assay: Cytotoxicity against human MDA-MB-436 cells; format: functional, cell-based
[27] = tested on: A549; assay: Antiproliferative activity against human A549 cells assessed as reduction in cell growth incubated for 24 hrs by MTT assay; format: functional, cell-based; details: A549, 24 h
[28] = tested on: HepG2; assay: Antiproliferative activity against human HepG2 cells assessed as reduction in cell growth incubated for 24 hrs by MTT assay; format: functional, cell-based; details: HepG2, 24 h
[29] = tested on: MCF7; assay: Antiproliferative activity against human MCF7 cells assessed as reduction in cell growth incubated for 24 hrs by MTT assay; format: functional, cell-based; details: MCF7, 24 h
[30] = target: Poly [ADP-ribose] polymerase 2 (Homo sapiens, UniProt Q9UGN5); assay: Inhibition of PARP2 (unknown origin)
[31] = tested on: HCT-116; assay: Antiproliferative activity against human HCT-116 cells assessed as reduction in cell growth incubated for 24 hrs by MTT assay; format: functional, cell-based; details: HCT-116, 24 h

T1 sequence (P09874 whole entry): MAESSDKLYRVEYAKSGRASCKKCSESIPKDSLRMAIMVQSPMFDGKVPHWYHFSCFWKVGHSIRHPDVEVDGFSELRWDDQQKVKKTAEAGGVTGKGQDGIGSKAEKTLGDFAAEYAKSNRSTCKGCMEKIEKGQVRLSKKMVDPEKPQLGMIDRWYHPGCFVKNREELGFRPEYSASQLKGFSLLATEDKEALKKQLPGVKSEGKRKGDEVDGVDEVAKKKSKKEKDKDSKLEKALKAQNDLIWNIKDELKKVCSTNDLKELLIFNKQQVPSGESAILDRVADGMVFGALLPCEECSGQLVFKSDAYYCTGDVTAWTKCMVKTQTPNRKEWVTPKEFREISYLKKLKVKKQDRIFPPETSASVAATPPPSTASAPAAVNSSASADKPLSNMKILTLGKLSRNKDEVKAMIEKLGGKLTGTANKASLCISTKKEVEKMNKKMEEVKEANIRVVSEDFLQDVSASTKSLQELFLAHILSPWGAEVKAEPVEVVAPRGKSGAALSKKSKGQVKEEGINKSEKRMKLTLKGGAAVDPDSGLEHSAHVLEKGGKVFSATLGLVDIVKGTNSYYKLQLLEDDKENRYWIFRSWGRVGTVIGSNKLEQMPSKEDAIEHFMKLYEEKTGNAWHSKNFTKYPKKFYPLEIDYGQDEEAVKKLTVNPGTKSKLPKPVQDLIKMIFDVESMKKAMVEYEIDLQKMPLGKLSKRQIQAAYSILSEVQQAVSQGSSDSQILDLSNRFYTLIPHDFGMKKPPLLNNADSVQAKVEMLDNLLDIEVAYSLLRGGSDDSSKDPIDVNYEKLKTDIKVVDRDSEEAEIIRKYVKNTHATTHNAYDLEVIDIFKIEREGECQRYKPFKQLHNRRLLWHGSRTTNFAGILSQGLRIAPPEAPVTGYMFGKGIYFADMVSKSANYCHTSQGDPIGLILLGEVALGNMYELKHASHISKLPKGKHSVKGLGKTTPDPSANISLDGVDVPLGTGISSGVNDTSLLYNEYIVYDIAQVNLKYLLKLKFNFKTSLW
Sequence of Protein mono-ADP-ribosyltransferase PARP3 (Q9Y6F1 whole entry): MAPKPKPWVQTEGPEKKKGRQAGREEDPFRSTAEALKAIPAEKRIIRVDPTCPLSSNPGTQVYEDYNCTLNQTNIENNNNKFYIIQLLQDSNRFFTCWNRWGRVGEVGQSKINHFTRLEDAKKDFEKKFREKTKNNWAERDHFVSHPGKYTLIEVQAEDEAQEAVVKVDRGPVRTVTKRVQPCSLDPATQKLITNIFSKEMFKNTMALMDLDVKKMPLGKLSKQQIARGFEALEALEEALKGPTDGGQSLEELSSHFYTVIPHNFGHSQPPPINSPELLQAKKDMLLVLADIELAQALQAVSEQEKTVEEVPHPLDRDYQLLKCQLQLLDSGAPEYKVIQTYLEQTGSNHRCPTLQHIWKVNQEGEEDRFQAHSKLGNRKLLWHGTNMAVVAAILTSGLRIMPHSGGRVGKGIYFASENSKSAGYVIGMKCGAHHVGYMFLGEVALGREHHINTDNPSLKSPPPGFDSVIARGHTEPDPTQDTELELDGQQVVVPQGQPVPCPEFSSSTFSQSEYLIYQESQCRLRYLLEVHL
Sequence of Poly [ADP-ribose] polymerase 2 (Q9UGN5 whole entry): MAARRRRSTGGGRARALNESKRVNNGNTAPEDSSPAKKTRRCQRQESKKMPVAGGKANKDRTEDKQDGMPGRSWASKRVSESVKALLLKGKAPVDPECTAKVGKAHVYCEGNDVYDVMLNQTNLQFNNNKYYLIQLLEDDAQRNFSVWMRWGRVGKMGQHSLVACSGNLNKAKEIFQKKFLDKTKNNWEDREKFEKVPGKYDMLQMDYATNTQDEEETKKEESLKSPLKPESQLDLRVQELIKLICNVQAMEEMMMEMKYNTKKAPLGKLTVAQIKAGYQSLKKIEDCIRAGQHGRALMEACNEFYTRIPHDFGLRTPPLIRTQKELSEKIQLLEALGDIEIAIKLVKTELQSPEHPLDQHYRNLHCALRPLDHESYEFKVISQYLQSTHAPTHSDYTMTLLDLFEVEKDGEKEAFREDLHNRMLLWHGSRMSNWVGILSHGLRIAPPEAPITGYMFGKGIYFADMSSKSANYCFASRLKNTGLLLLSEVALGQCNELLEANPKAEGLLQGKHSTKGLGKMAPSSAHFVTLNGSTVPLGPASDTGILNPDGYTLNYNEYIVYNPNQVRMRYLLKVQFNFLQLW

IC50 [1]: 0.37 nM | IC50 [2]: 0.46 nM
Structure (SMILES): Cn1ncnc1[C@H]1c2n[nH]c(=O)c3cc(F)cc(c23)N[C@@H]1c1ccc(F)cc1 [TALAZOPARIB]

IC50 [3]: 10600 nM | IC50 [4]: 140 nM
Structure (SMILES): O=C(Cn1c(=S)n(-c2ccccc2)c(=O)c2ccccc21)Nc1cccc2ccccc12

IC50 [3]: 11400 nM | IC50 [4]: 170 nM
Structure (SMILES): O=C(Cn1c(=S)n(-c2ccccc2)c(=O)c2ccccc21)Nc1ccc2c(c1)C(=O)c1ccccc1C2

IC50 [7]: 70 nM
Structure (SMILES): O=C(CCN1CCOCC1)Nc1ccc(-c2nc3cc(Cl)ccc3o2)cc1
IC50 [5]: 6140 nM | IC50 [6]: 6050 nM

IC50 [10]: 320 nM
Structure (SMILES): CCOC(=O)CO/N=C(\N)c1ccc(C)cc1
IC50 [8]: 480 nM | IC50 [9]: 400 nM

IC50 [11]: 43 nM | IC50 [12]: 36700 nM
Structure (SMILES): NC(=O)c1cccc2[nH]c(-c3ccc(C(=O)N4CCN(C(=O)c5ccc(Cl)o5)CC4)cc3)nc12

IC50 [13]: 3.15 nM
Structure (SMILES): Cc1c(C(=O)/C=C/c2cccc([N+](=O)[O-])c2)nnn1-c1ccc(Br)cc1

Structure (SMILES): O=c1[nH]c2c(c(=O)[nH]1)C(c1cccs1)c1[nH]c(=S)n(-c3ccccc3)c(=O)c1O2 (stereo unspecified)
IC50 [14]: 46000 nM

IC50 [15]: 16.3 nM
Structure (SMILES): Cc1ccoc1C(=O)N1CCN(C(=O)c2ccc(-c3nc4c(C(N)=O)cccc4[nH]3)cc2)C(C)C1 (stereo unspecified)

IC50 [16]: 25400 nM
Structure (SMILES): Cc1ccoc1C(=O)N1CCCN(C(=O)c2ccc(-c3nc4c(C(N)=O)cccc4[nH]3)cc2)CC1

Structure (SMILES): O=C(CCCc1ccc(N(CCCl)CCCl)cc1)N1CCN(C(=O)c2cc(Cc3n[nH]c(=O)c4ccccc34)ccc2F)CC1
IC50 [17]: 180 nM | IC50 [18]: 1620 nM | IC50 [19]: 13 nM | IC50 [20]: 86 nM | IC50 [21]: 30600 nM | IC50 [22]: 53800 nM | IC50 [23]: 10400 nM

Structure (SMILES): COc1ccc(Cc2nnc(-c3cccc(-c4cccc(C=O)c4)c3)o2)cc1
IC50 [24]: 29300 nM | IC50 [25]: 1400 nM

Structure (SMILES): COc1ccc(/C=C2\CC3(CC4C2OC(=O)C(C(C)=O)C4c2ccc(OC)cc2)OCCO3)cc1 (stereo unspecified)
IC50 [26]: 7470 nM

IC50 [27]: 3670 nM | IC50 [28]: 2010 nM | IC50 [29]: 4250 nM | IC50 [30]: 30.4 nM | IC50 [31]: 3940 nM
Structure (SMILES): O=C1CCc2cc(-c3ccccc3F)ccc2C2(CCCCC2)N1

IC50 [11]: 23 nM | IC50 [12]: 43600 nM
Structure (SMILES): NC(=O)c1cccc2[nH]c(-c3ccc(C(=O)N4CCN(C(=O)c5ccc(Br)o5)CC4)cc3)nc12

Structure (SMILES): COc1ccc(/C=C2\CC3(CC4C2=NN(C(N)=S)C4c2ccc(OC)cc2)OCCO3)cc1 (stereo unspecified)
IC50 [26]: 670 nM
